Test results published in patent US20250127790A1, “COMBINATION THERAPY USING VPS34 INHIBITORS” (Deciphera Pharmaceuticals, LLC, priority 2021, published 2025).

Assays:
[1] = test system: 786-O renal cell carcinoma cells; test: qRT-PCR, Type 1 Interferon pathway gene expression in 786-O cells; assay type: cell-based, Human; details: 2 μM, 24 hr
Description: 786-O cells were grown in RPMI-1640 medium containing 10% fetal bovine serum. Cells were then incubated for 2 days at 37 degrees Celsius, 5% CO2, and 95% humidity. 786-O cells were incubated with 2 μM of compound 1 for 24 hr. Cells were washed with PBS and RNA was isolated using the PureLink RNA kit (#12183018A, Thermo Fisher Scientific) according to the manufacturer's protocol. Genomic DNA was removed using DNA-binding columns (RNeasy plus kit, #74134, Qiagen) and/or DNase treatment (#12185010, Thermo Fisher Scientific). RNA was quantified using NanoDrop (Thermo Fisher Scientific) and 50 ng/μL RNA was used for cDNA synthesis with SuperScript IV VILO Master Mix (#11756050, Thermo Fisher Scientific). Quantitative RT-PCR (qRT-PCR) was run with diluted cDNA (1:25 or 1:12.5), PowerUp SYBR Green Master Mix (#A25741, Thermo Fisher Scientific), and 200 nM primers (see below) on a CFX Connect RT-PCR system (BioRad). Data was analyzed using the ΔΔCT method. Results are mean±SEM of three independent experiments.

[2] = test system: 786-O renal cell carcinoma cells; test: Western blot, STING pathway proteins with siRNA knockdown, 786-O cells; assay type: cell-based; details: 24 h; for CGAS level / STING level / p-IRF3 level / p-STAT1 level / p-TKB1 level / p-IRF3 and p-STAT1 levels with siRNA knockdown of CGAS / p-TKB1 level with siRNA knockdown of CGAS / p-IRF3 and p-STAT1 levels with siRNA knockdown of STING / p-TBK1 level with siRNA knockdown of STING: 2 μM; for CGAS level / STING level / p-IRF3 level / p-STAT1 level / p-TKB1 level: vs DMSO alone; for p-IRF3 and p-STAT1 levels with siRNA knockdown of CGAS / p-TKB1 level with siRNA knockdown of CGAS: siCGAS; for p-IRF3 and p-STAT1 levels with siRNA knockdown of CGAS / p-TKB1 level with siRNA knockdown of CGAS / p-IRF3 and p-STAT1 levels with siRNA knockdown of STING / p-TBK1 level with siRNA knockdown of STING: vs compound alone; for p-IRF3 and p-STAT1 levels with siRNA knockdown of STING / p-TBK1 level with siRNA knockdown of STING: siSTING; for STING level with siRNA knockdown of TBK1 / CGAS level with siRNA knockdown of TBK1: siTBK1, 2 μM; for CGAS level with siRNA knockdown of TBK1: vs DMSO
Description: 786-O cells were transfected with scrambled siRNA control (siSCR) or siRNA targeting TBK1 (siTBK1), STING (siSTING) or CGAS (siCGAS). After 48 h cells were treated with DMSO or 2 μM of VPS34 inhibitor (Compound 1 or Compound 2) for 24 h. 786-O cells were washed in PBS and lysed in RIPA buffer (50 mM Tris HCl pH=7.4, 150 mM NaCl, 1% Triton X-100, 0.5% Na-deoxycholate, 0.1% SDS) containing protease inhibitor cocktail (#11836170001, Roche), and phosphatase inhibitor (#11836170001, Roche) for 10 min at 4° C. After centrifugation at 15000 rpm for 10 min at 4° C., the supernatant was obtained, and protein concentration was quantified using BCA assay (#23225, Thermo Fisher). Equal amounts were mixed with 0.1 M DTT and LDS Sample Buffer (#84788, Thermo Fisher), heated for 5 min at 90° C. before loading onto 4-12% Bis-Tris gels. Proteins were transferred to nitrocellulose membranes. Membranes were blocked in 5% non-fat dry milk in TBS with 0.05% Tween (TBS-T) for 1 h at RT, washed in TBS-T, and probed with primary antibodies shaking overnight at 4° C. After washing in TBS-T, membranes were incubated with IRDye 800CW goat anti-rabbit or IRDye 680RD donkey anti-mouse IgG (H+L) (#926-32211 and #926-68072, respectively, LI-COR, 1:10,000 dilution) secondary antibody in Intercept blocking buffer (#927-60001, LI-COR) for 1 h at RT. After washing in TBS-T, membranes were imaged using the Odyssey CLx (LI-COR). Band intensities were quantified using Image Studio Lite software version 5.2.5 (LI-COR).

[3] = test system: Me30966 melanoma cells; test: qRT-PCR with siSTING, Me30966 cells; assay type: cell-based, Human; details: 2 μM, 24 h; for increase in CCL5 mRNA expression / increase in CXCL10 mRNA expression / increase in IFNB1 mRNA expression: siSCR
Description: Me30966 cells were transfected with siSCR or siSTING. After 48 h, cells were treated with DMSO or 2 μM of VPS34 inhibitors (Compound 1 or Compound 2) for 24 h. Cells were washed with PBS and RNA was isolated using the PureLink RNA kit (#12183018A, Thermo Fisher Scientific) according to the manufacturer's protocol. Genomic DNA was removed using DNA-binding columns (RNeasy plus kit, #74134, Qiagen) and/or DNase treatment (#12185010, Thermo Fisher Scientific). RNA was quantified using NanoDrop (Thermo Fisher Scientific) and 50 ng/μL RNA was used for cDNA synthesis with SuperScript IV VILO Master Mix (#11756050, Thermo Fisher Scientific). Quantitative RT-PCR (qRT-PCR) was run with diluted cDNA (1:25 or 1:12.5), PowerUp SYBR Green Master Mix (#A25741, Thermo Fisher Scientific), and 200 nM primers (see below) on a CFX Connect RT-PCR system (BioRad). Data was analyzed using the ΔΔCT method. Results are mean±SEM of three independent experiments.

[4] = test system: YUMM 1.7 melanoma cells; test: qRT-PCR, combination with cGAMP, YUMM1.7 cells; assay type: cell-based, Mouse; details: 24 hours, 5 μM Compound 1 or 10 μM Compound 2, 10 mg/ml cGAMP
Description: (§1) YUMM1.7 cells were treated for 24 hours with DMSO or VPS34 inhibitors (5 μM Compound 1 or 10 μM Compound 2) in combination with 10 mg/ml STING agonist cGAMP (green bars). Cells were washed with PBS and RNA was isolated using the PureLink RNA kit (#12183018A, Thermo Fisher Scientific) according to the manufacturer's protocol. Genomic DNA was removed using DNA-binding columns (RNeasy plus kit, #74134, Qiagen) and/or DNase treatment (#12185010, Thermo Fisher Scientific). RNA was quantified using NanoDrop (Thermo Fisher Scientific) and 50 ng/μL RNA was used for cDNA synthesis with SuperScript IV VILO Master Mix (#11756050, Thermo Fisher Scientific). Quantitative RT-PCR (qRT-PCR) was run with diluted cDNA (1:25 or 1:12.5), PowerUp SYBR Green Master Mix (#A25741, Thermo Fisher Scientific), and 200 nM primers (see below) on a CFX Connect RT-PCR system (BioRad). Data was analyzed using the ΔΔCT method. Results are mean±SEM of three independent experiments.

[5] = test system: YUMM 1.7 melanoma cells; test: Cytokine secretion assay, combination with cGAMP, YUMM1.7 cells; assay type: cell-based, mouse; details: 24 hours, 5 μM Compound 1 or 10 μM Compound 2, 10 mg/ml cGAMP
Description: as §1
Cell culture medium was centrifuged at 1600 rpm for 10 min at 4° C. and obtained supernatant stored at −80° C. Cytokine levels were quantified using following Meso Scale Discovery (MSD) assays: mouse U-PLEX RANTES/CCL5 (#K152A2K) and U-PLEX IP-10/CXCL10 (#K152UFK). Assays were run on the SECTOR Quickplex Imager and analyzed using Discovery Workbench version 4.0 (MSD).

SMILES	increase in mRNA expression of IRF9 [1]	CGAS level [2]	STING level [2]	p-IRF3 level [2]	p-STAT1 level [2]	p-TKB1 level [2]	p-IRF3 and p-STAT1 levels with siRNA knockdown of CGAS [2]	p-TKB1 level with siRNA knockdown of CGAS [2]	p-IRF3 and p-STAT1 levels with siRNA knockdown of STING [2]	p-TBK1 level with siRNA knockdown of STING [2]	STING level with siRNA knockdown of TBK1 [2]	CGAS level with siRNA knockdown of TBK1 [2]	increase in CCL5 mRNA expression [3] [fold]	increase in CXCL10 mRNA expression [3] [fold]	increase in IFNB1 mRNA expression [3] [fold]	CCL5 mRNA increase with siSTING [3]	CXCL10 mRNA increase with siSTING [3]	IFNB1 mRNA increase with siSTING [3]	CCL5 mRNA expression [4]	CXCL10 mRNA expression [4]	further results
C[C@@H]1COCCN1c1cc(N2CCCC[C@@H]2C(F)(F)F)[nH]c(=O)c1 [Compound 1, 4-((R)-3-methylmorpholino)-6-((R)-2-(trifluoromethyl)piperidin-1-yl)pyridin-2(1H)-one]	approximately 2 fold	mild increase	increase	strong increases	strong increases	increase	complete loss	decrease	complete loss	decrease	increase	increase	~10	~10	~5	abolished	abolished	abolished	increased	did not increase	CCL5 protein secretion [5]: increased; CXCL10 protein secretion [5]: increased
C[C@@H]1COCCN1c1cc(=O)n2c(n1)N(Cc1cncc(Cl)c1)[C@H](C(F)(F)F)CC2 [Compound 2, (S)-9-((5-chloropyridin-3-yl)methyl)-2-((R)-3-methylmorpholino)-8-(trifluoromethyl)-6,7,8,9-tetrahydro-4H-pyrimido[1,2-a]pyrimidin-4-one]	approximately 2 fold	mild increase	increase	strong increases	strong increases	increase	complete loss	decrease	complete loss	decrease	increase	increase	~10	~10	~5	abolished	abolished	abolished	increased	did not increase	CCL5 protein secretion [5]: increased; CXCL10 protein secretion [5]: increased
